Measurements published in US4728655A, “Sulfonamidines, process for the production thereof and pharmaceutical compositions containing the same” (Ferrer Internacional S.A., priority 1984, dated 1988).
Structures can show the parent of a compound that is named as a salt.

Target: T1, histamine H2-receptors (Rattus norvegicus, UniProt P25102)
T1 construct: histamine H2 -receptors was tested in Sprague-Dawley male rats; from tissue; host or cells: stomach of the living anesthetized Sprague-Dawley rat (in vivo perfused stomach)
Assay: blocking activity of histamine H2-receptors: antagonism of histamine-induced gastric acid secretion (perfused stomach, pH recording) in anesthetized rats
Assay type: in vivo
Settings: iv, rapid i.v. injection (right femoral vein), histamine hydrochloride infusion 0.0552 mg/min/kg, ethyl carbamate anesthesia, male Sprague-Dawley rats
Description: The blocking qctivity of histamine H2 -receptors was tested in Sprague-Dawley male rats weighing 345±38 g. Animals which were subjected to a 24-hour hydric diet were tracheotomized under ethyl carbamate anesthesia (1 ml/100 g, 10% w/V i.p.). After cannulating the esophagus and stomach from duodenum, the gastric contents were drained. Then the esophageal cannual was connected to a peristaltic pump, under prior passage over a thermostatic batch at 37° C., and 1/800N sodium hydroxide solution in water flowed through. The cannula from the stomach was connected by a tube leading to a Ph-meter electrode, and the readings were graphically recorded. pH increase occurring by perfusion of the sodium hydroxide solution at 1.6 ml/min. rate is antagonized by continuous infusion of histamine hydrochloride through a catheter implanted in the right femoral vein (0.0552 mg/min/kg, 2 ml/hour). After calibrating the pH, test drugs are quickly injected into the right femoral vein. Under these conditions, the activities, expressed at ED50, of some compounds according to the present invention, are determined and set forth as follows, with cimetidine being employed for purposes of comparison: […]

T1 sequence (P25102 whole entry, the tested form may be a part): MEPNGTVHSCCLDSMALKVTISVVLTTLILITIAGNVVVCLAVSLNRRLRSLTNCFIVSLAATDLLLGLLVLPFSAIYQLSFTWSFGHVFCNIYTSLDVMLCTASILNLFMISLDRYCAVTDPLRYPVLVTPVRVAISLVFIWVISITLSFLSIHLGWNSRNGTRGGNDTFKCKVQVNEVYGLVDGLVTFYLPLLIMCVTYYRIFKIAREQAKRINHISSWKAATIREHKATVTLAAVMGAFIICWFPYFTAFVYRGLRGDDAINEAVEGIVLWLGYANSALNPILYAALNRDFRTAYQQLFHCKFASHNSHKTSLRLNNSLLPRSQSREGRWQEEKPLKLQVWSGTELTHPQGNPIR

| ED50 [µmol/kg] | SMILES |
| --- | --- |
| 0.7 | Cc1ccc(S(=O)(=O)N=CNCCSCc2csc(N=C(N)N)n2)cc1 [Ex. 1, hydrogen maleate, N-p-toluensulphonyl-N'-[2-[[[2-[(aminoiminomethyl)amino]-4-thiazolyl]methyl]thio]ethyl]formamidine hydrogen maleate] |
| 1.12 | CS(=O)(=O)N=CNCCSCc1csc(N=C(N)N)n1 [Ex. 3, hydrogen maleate, N-methansulphonyl-N'-[2-[[[2-[(aminoiminomethyl)amino]-4-thiazolyl]methyl]thio]ethyl]formamidine hydrogen maleate] |
| 0.75 | NC(N)=Nc1nc(CSCCNC=NS(=O)(=O)c2ccc(Cl)cc2)cs1 [Ex. 5, hydrogen maleate, N-p-chlorobenzenesulphonyl--N'-[2-[[[2-[(aminoiminomethyl)amino]-4-thiazolyl]methyl]thio]ethyl]formamidine hydrogen maleate] |
| 1.77 | NC(N)=Nc1nc(CSCCNC=NS(=O)(=O)c2ccccc2)cs1 [Ex. 2, hydrogen maleate, N-benzenesulphonyl-N'-[2-[[[2-[(aminoiminomethyl)amino]-4-thiazolyl]methyl]thio]ethyl]formamidine hydrogen maleate] |
| 0.61 | NC(N)=Nc1nc(CSCCNC=NS(=O)(=O)c2ccc([N+](=O)[O-])cc2)cs1 [Ex. 4, hydrogen maleate, N-p-nitrobenzenesulphonyl-N'-[2-[[[2-[(aminoiminomethyl)amino]-4-thiazolyl]methyl]thio]ethyl]formamidine hydrogen maleate] |
